In experiment [1] the test system is LTB4 production in human whole blood. The experiment can be described thus: Inhibition of LTB4 Production in Blood. The format is cell-based. The settings on record: 1 h, 20 μM A23187, 60 minutes at 37° C., LTB4 in plasma by ELISA, read-out: protection against LTB4 at an EC50. On the procedure:
• Human whole blood (Na citrate) (Stanford Blood Center) • A23187, (Sigma, Cat# C-7522) • Leukotriene B4 EIA reagents (Cayman Chemical, Cat # 520111) • BWA4C (Sigma, Cat # B7559) Procedure Preparation of A23187:
A23187 was prepared as a 10 mM stock solution in DMSO (aliquots can be stored at −20° C.). On the day of the assay the stock solution was diluted as follows: 70 μL 10 mM stock added to 1.6 mL plasma to give a working concentration of 0.42 mM.
From a 30 mM stock solution in DMSO, test articles were diluted to a working concentration of 600 μM in PBS (i.e. 10 μL stock solution+490 μL PBS). This is the highest concentration (gives a final testing concentration of 30 μM). From this 600 μM solution test articles were serially diluted 1:3 in PBS to give a dose-response curve. 10 μL of each concentration of test article was then added to 4 wells of a 96-well plate (i.e. testing in quadruplicate). A positive control compound, BWA4C was used in every assay.
Human whole blood was added to the plates containing compounds (190 μL per well) and mixed well. The blood was incubated with compound at 37° C. for 15 minutes. Following this incubation, 10 μL of 0.42 mM A23187 was added to each well except the negative control wells to give a final calcium ionophore concentration of 20 μM. The plates were then incubated at 37° C. for 60 minutes. After the incubation period, plates were centrifuged for 15 min at 2000 g at 4° C. in sealed microplate buckets. Plasma was then removed for quantitation of LTB4 levels by ELISA.
LTB4 levels in the plasma were determined using a commercially available ELISA kit from Cayman Chemicals. The ELISA was run according to the manufacturer's instructions. The LTB4 levels in the vehicle control sample were then compared to those in which the test article had been added. From this a percent inhibition of LTB4 production by each concentration of test article was calculated and the IC50 was determined.
(In general: In an ELISA, binding on a coated surface is turned into a signal by an enzyme label.)

The test system of experiment [2] is release of the leukotriene LTB4 from a neutrophil cell line (MPRO cell line). In words: LTB4-Cell Assay. The conditions noted are these: Mus musculus, 1 h, read-out: inhibition of LTB4 with an EC50. The class given is cell-based. The source says:
• This procedure was used for measuring the release of the leukotriene LTB4 from a neutrophil cell line using a competitive ELISA technique. Materials and Equipments Materials for Cell Preparation and Experiment • MPRO cell line (ATCC, Catalog # CRL-11422) • Calcium ionophore (A23187) (Sigma, Catalog # C7522) • Nordihydroguaiaretic acid (NDGA) (BioMol ,Catalog # EI101-0001) • Retinoic Acid (all-trans) (ATRA) (Sigma, Catalog # 95152) • Sterile, tissue-culture treated 96-well plates (Corning, Catalog # 3614) Materials for LTB4 ELISA • Precoated (Mouse Anti-Rabbit IgG) EIA 96 Well Strip Plates (Cayman, Catalog # 400004) • Leukotriene B4 AChE Tracer (Cayman Catalog # 420110) • Leukotriene B4 EIA Antiserum (Cayman Catalog # 420112) • Ellman's Reagent (Cayman Catalog # 400050) • EIA Buffer Concentrate (10×) (Cayman Catalog # 400060) • Wash Buffer Concentrate (400×) (Cayman Catalog # 400062) • Plastic plate covers (Cayman Catalog # 400012) Procedure
A mouse promyelocytic cell line (MPRO) was used in this assay. These cells are committed immature neutrophils that can be differentiated into mature neutrophils by treatment with 10 μM all-trans retinoic acid for 72 hours.
Following 72 hours of differentiation, cells were stimulated with 1 μM of a calcium ionophore (A23187) in the presence or absence of test compound or vehicle for 1 hour at 37° C. After this time, supernatant was removed from the cells and the LTB4 levels were determined following manufacturer's instructions, using a Leukotriene B4 EIA kit from Cayman (Cat # 5201 11). The negative controls were media samples from differentiated but un-stimulated cells. The compounds were screened at 5 concentrations in quadruplicate starting at 10 μM.

Experiment [3] has as its target T1, human recombinant 5-Lipoxygenase (Homo sapiens, UniProt P09917).
T1 sequence (P09917 1-674): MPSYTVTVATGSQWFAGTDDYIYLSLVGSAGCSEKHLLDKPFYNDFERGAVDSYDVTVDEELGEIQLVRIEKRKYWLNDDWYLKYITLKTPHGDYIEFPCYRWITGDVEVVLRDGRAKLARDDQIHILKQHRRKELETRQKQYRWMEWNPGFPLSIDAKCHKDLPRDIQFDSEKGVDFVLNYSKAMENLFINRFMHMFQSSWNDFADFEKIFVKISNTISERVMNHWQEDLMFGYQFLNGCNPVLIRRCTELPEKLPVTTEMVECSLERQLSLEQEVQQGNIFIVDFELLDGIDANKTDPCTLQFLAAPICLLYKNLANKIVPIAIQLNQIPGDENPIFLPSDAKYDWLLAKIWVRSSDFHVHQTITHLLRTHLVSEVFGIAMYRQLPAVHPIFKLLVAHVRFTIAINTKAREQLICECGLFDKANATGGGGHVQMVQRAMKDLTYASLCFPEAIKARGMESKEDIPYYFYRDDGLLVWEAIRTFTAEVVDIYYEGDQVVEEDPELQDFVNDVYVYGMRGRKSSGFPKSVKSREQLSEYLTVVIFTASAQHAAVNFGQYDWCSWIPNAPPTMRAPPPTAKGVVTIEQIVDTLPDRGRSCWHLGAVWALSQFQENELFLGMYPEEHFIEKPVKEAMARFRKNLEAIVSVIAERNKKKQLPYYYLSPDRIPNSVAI
In words: 5-Lipoxygenase Enzyme Assay. The class given is biochemical. The settings on record: 70 μM arachidonic acid, 10 minute incubation at room temperature, FOX reagent, absorbance at 620 nm; read-out: inhibition of 5-Lipoxygenase with an IC50. The gist of the method: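 Recombinant human 5-LOX in 50 mM Tris-HCl pH 7.4 was preincubated with compound, then 70 μM arachidonic acid was added for 10 min at room temperature. Hydroperoxide was read by FOX reagent (ferric xylenol orange, 1 h complex formation) as absorbance at 620 nm. Five concentrations in triplicate were tested, starting at 10 μM.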

23 molecules from patent publication US7576094B2, “Spiro derivatives as lipoxygenase inhibitors” (Eli Lilly and Company, priority 2004, dated 2009) can be followed below.

Molecules are shown by their SMILES.

In general, EC50 refers to the midpoint of the concentration-response curve. Regarding `Cc1c(C)c2c(c(C)c1O)C=C(C(C)O)C1(CCC1)O2` (stereo not drawn) [3-(1-hydroxyethyl)-5,7,8-trimethylspiro[chromene-2,1′-cyclobutan]-6-ol], the EC50 in experiment [1] was less than 10 µM; in experiment [2], less than 5 µM.
Turning to `CONCC1=Cc2c(cc(C)c(O)c2C)OC12CCC2` [3-[(methoxyamino)methyl]-5,7-dimethylspiro[chromene-2,1′-cyclobutan]-6-ol], the EC50 in experiment [1] was less than 10 µM; in experiment [2] it was less than 5 µM.
The like results for `Cc1c(C)c2c(c(C)c1O)C(=NO)CC1(CCC1)O2` [6-hydroxy-5,7,8-trimethylspiro[chromene-2,1′-cyclobutan]-4(3H)-one oxime] were, in that order, less than 10 µM and less than 5 µM.
The IC50 is the concentration at which inhibition is half-maximal. On to `CCONC1CC2(CCC2)Oc2c(C)c(C)c(O)c(C)c21` (stereo not drawn) [4-(ethoxyamino)-5,7,8-trimethyl-3,4-dihydrospiro[chromene-2,1′-cyclobutan]-6-ol], for which the EC50 was less than 10 µM in experiment [1] and less than 5 µM in experiment [2]. Moreover, the 50% inhibitory concentration (IC50) in experiment [3] is less than 0.3 µM.
For `Cc1c(O)c(C)c(-c2cnco2)c2c1CCC1(CCC1)O2` [5,7-dimethyl-8-(1,3-oxazol-5-yl)-3,4-dihydrospiro[chromene-2,1′-cyclobutan]-6-ol], the EC50 was less than 10 µM in experiment [1] and less than 5 µM in experiment [2]. The IC50 in experiment [3] is less than 0.3 µM.
Regarding `Cc1c(C)c2c(c(C)c1O)C(NO)CC1(CCC1)O2` (stereo not drawn) [4-(hydroxyamino)-5,7,8-trimethyl-3,4-dihydrospiro[chromene-2,1′-cyclobutan]-6-ol], the figures for the EC50 in experiment [1] and in experiment [2] were less than 10 µM and less than 5 µM, respectively. Besides, the IC50 in experiment [3] was less than 0.3 µM.
In the case of `CCONCc1c(C)c(O)c(C)c2c1OC1(CCC1)CC2` [8-[(ethoxyamino)methyl]-5,7-dimethyl-3,4-dihydrospiro[chromene-2,1′-cyclobutan]-6-ol], the results for the concentration for a half-maximal effect (EC50) in experiment [1] and in experiment [2] were less than 10 µM and less than 5 µM, respectively. For the same molecule, the IC50 in experiment [3] was less than 0.3 µM.
`Cc1c(O)cc2c(c1C)OCC1(CC1)C2` [7,8-dimethylspiro[chroman-3,1′-cyclopropan]-6-ol]: the half-maximal effective concentration (EC50) was less than 10 µM in experiment [1] and less than 5 µM in experiment [2]. Also, the IC50 in experiment [3] is less than 0.3 µM.
As for `CCONCC1Cc2c(cc(C)c(O)c2C)OC12CCC2` (stereo not drawn) [3-[(ethoxyamino)methyl]-5,7-dimethyl-3,4-dihydrospiro-[chromene-2,1′-cyclobutan]-6-ol], the EC50 in experiment [1] is less than 10 µM; in experiment [2] it was less than 5 µM.
In the case of `CONCc1c(C)c(O)c(C)c2c1OC1(CCC1)CC2` [8-[(methoxyamino)methyl]-5,7-dimethyl-3,4-dihydrospiro[chromene-2,1′-cyclobutan]-6-ol], the EC50 in experiment [1] is less than 10 µM; in experiment [2], less than 5 µM. In addition, the IC50 in experiment [3] is less than 0.3 µM.
Turning to `Cc1c(C)c2c(c(C)c1O)C=C(CO)C1(CCC1)O2` [3-(hydroxymethyl)-5,7,8-trimethylspiro[chromene-2,1′-cyclobutan]-6-ol], the figures for the EC50 in experiment [1] and in experiment [2] were less than 10 µM and less than 5 µM, respectively. Also, the IC50 in experiment [3] was less than 0.3 µM.
For `Cc1c(C)c2c(c(C)c1O)C(C#N)CC1(CCC1)O2` (stereo not drawn) [6-hydroxy-5,7,8-trimethyl-3,4-dihydrospiro[chromene-2,1′-cyclobutane]-4-carbonitrile] the same measures were less than 10 µM, less than 5 µM and less than 0.3 µM.
With `CCCCc1cc(-c2c(C)c(O)c(C)c3c2OC2(CCC2)CC3)no1` [5,7-dimethyl-8-(5-butyl-isoxazol-3-yl)-3,4-dihydrospiro[chromene-2,1′-cyclobutan]-6-ol], the EC50 in experiment [1] was less than 10 µM; in experiment [2], less than 5 µM. Also, in experiment [3], the IC50 is less than 0.3 µM.
The like results for `CCOC1c2c(C)c(O)c(C)c(C)c2OCC12CCC2` (stereo not drawn) [4-ethoxy-5,7,8-trimethylspiro[chroman-3,1′-cyclobutan]-6-ol] were, in that order, less than 10 µM, less than 5 µM and less than 0.3 µM.
Regarding `CCc1cc2c(c(CC)c1O)C(NOC)CC1(CCC1)O2` (stereo not drawn) [4-(methoxyamino)-5,7-diethyl-3,4-dihydrospiro[chromene-2,1′-cyclobutan]-6-ol], the half-maximal effective concentration (EC50) in experiment [1] was less than 10 µM; in experiment [2], less than 5 µM. For the same molecule, the IC50 in experiment [3] is less than 0.3 µM.
As for `CCc1cc2c(c(CC)c1O)CC(CO)C1(CCC1)O2` (stereo not drawn) [5,7-diethyl-3-(hydroxymethyl)spiro[chroman-2,1′-cyclobutan]-6-ol], the EC50 was less than 10 µM in experiment [1] and less than 5 µM in experiment [2].
As for `COC1Cc2c(C)c(O)c(C)c(C)c2OC12CCC2` (stereo not drawn) [3-methoxy-5,7,8-trimethyl-3,4-dihydrospiro[chromene-2,1′-cyclobutan]-6-ol], the concentration giving a half-maximal response (EC50) was less than 10 µM in experiment [1] and less than 5 µM in experiment [2].
As to `CC1=Cc2c(C)c(O)c(C)c(C)c2OC12CCC2` [3,5,7,8-tetramethylspiro[chromene-2,1′-cyclobutan]-6-ol], the EC50 in experiment [1] was less than 10 µM; in experiment [2], less than 5 µM.
On to `Cc1c(C)c2c(c(C)c1O)CC(CO)C1(CCC1)O2` (stereo not drawn) [3-(hydroxymethyl)-5,7,8-trimethyl-3,4-dihydrospiro[chromene-2,1′-cyclobutan]-6-ol], for which the figures for the EC50 in experiment [1] and in experiment [2] were less than 10 µM and less than 5 µM, respectively.
As to `CCO/N=C1\CC2(CCC2)Oc2c(C)c(C)c(O)c(CC)c21` [5-ethyl-6-hydroxy-7,8-dimethylspiro[chromene-2,1′-cyclobutan]-4(3H)-one O-ethyloxime], in experiment [3], the IC50 is less than 0.3 µM. In experiment [2], the concentration giving a half-maximal response (EC50) is less than 5 µM.
On to `COC1c2c(C)c(O)c(C)c(C)c2OC2(CCC2)C1C` (stereo not drawn) [4-methoxy-3,5,7,8-tetramethyl-3,4-dihydrospiro[chromene-2,1′-cyclobutan]-6-ol], for which the 50% effective concentration (EC50) was less than 10 µM in experiment [1] and less than 5 µM in experiment [2].
As for `Cc1c(C)c2c(c(C)c1O)CC(O)C1(CCC1)O2` (stereo not drawn) [5,7,8-trimethyl-3,4-dihydrospiro[chromene-2,1′-cyclobutane]-3,6-diol], the results for the EC50 in experiment [1] and in experiment [2] were less than 10 µM and less than 5 µM, respectively.
`CCc1cc2c(c(CC)c1O)CC(COC(N)=O)C1(CCC1)O2` (stereo not drawn) [(5,7-diethyl-6-hydroxyspiro[chroman-2,1′-cyclobutane]-3-yl)methyl carbamate]: the results for the half-maximal effective concentration (EC50) in experiment [1] and in experiment [2] were less than 10 µM and less than 5 µM, respectively.
